# Assay: pKa of amines and of their methylol adducts with formaldehyde
# Details: not given
# Description: The availability of the base electron pair is influenced by the steric environment presented by the groups (R′, R″ and CH2OH) bonded to the N and any electronic influence of those same groups.
row,SMILES,pKa
1,CCCN(CO)CCC [methylol adduct of di-n-propyl amine],8.01
2,CCCNCCC [di-n-propyl amine],10.9
3,"CC(C)(N)CO [AMP, 2-amino-2-methyl-1-propanol, reference compound]",9.8
4,C1CCNC1 [pyrrolidine],10.6
5,CCN(CC)CO [methylol adduct of diethylamine],8.9
6,OCN1CCCC1 [methylol adduct of pyrrolidine],8.9
7,"CN(C)CCO [DMEOA, N,N-dimethylethanolamine, reference compound]",9.2
8,OCN1CCCCC1 [methylol adduct of piperidine],9.2
9,CC(C)N(CO)C(C)C [methylol adduct of diisopropylamine],9.0

# Assay: physchem
# Assay type: physicochemical
# Details: pH 8
# Description: One of ordinary skill will recognize that log P is a guideline tool for assessing amine candidates, since actual migration to the clear coat layer or retention within the aqueous 1K basecoat layer will be dependent upon the nature of the solvent base of the clear coat and other factors including the influence of other additives commonly present in the composition of both layers.
# In one aspect of the first embodiment, the secondary amine may be a dialkyl amine.
row,SMILES,logP
1,CCCCNCCCC [di-n-butyl amine],~2.8
2,CCNC(C)C [ethyl isopropyl amine],0.93
3,CCCNCCC [di-n-propyl amine],~1.6

# Source: patent US11583890B2, “Low temperature curing 1K basecoat and method to coat a substrate with the 1K basecoat” (BASF Coatings GmbH, priority 2017, dated 2023)
